From patent US10793580B2, “Substituted pyrazoloazepin-8-ones and their use as phosphodiesterase inhibitors” (LEO Pharma A/S, priority 2016, dated 2020) come the findings set out here.

The structures appear in SMILES notation.

Sequence of human PDE4D catalytic domain (Q08499 380-740): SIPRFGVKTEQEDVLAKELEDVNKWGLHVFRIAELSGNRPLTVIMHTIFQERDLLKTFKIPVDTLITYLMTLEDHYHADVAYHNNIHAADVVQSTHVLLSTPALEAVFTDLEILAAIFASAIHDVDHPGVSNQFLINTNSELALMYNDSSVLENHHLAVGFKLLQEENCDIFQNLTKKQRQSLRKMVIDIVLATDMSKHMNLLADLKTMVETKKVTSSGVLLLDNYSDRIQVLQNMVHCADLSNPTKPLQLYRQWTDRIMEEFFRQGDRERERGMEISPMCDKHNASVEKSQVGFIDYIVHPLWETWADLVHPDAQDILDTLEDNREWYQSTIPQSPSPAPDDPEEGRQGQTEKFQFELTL

The first experiment addresses human PDE4D catalytic domain (Homo sapiens (Human), UniProt Q08499). The experiment is described as follows: PDE4 Assay (TR-FRET, FAM-cAMP cleavage). The experiment is classed as biochemical. Conditions: Table 16, Examples 277-296; read-out: PDE4 IC50 range. The method, boiled down:
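Readout is Tb-to-FAM time-resolved FRET after nanoparticle capture of AMP, the product of cleaving a cAMP/FAM-cAMP mixture by PDE4D catalytic domain (S380-L740) in the presence of titrated compound. Values are IC50 ranges in nM: concentration halving substrate cleavage relative to controls.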
Background: In TR-FRET formats the signal depends on donor and acceptor labels being close together.
Regarding `CCn1nc(C[C@@H](C)COC(=O)c2cocn2)c2c1C(=O)NCC1(CCOCC1)C2` [Example 277, [(2R)-3-(1-ethyl-8-oxo-spiro[6,7-dihydro-4H-pyrazolo[3,4-c]azepine-5,4′-tetrahydropyran]-3-yl)-2-methyl-propyl] oxazole-4-carboxylate], the IC50 (as a rule, the concentration needed to halve the response being measured) was < 100 nM.

The experiment is the same for the next values; noted with them: Table 17, Examples 297-316; read-out: PDE4 IC50 range.
Regarding `CCn1nc(CC(C)(C)COC(=O)c2cncs2)c2c1C(=O)NCC1(CCOCC1)C2` [Example 306, [3-(1-ethyl-8-oxo-spiro[6,7-dihydro-4H-pyrazolo[3,4-c]azepine-5,4′-tetrahydro-pyran]-3-yl)-2,2-dimethyl-propyl] thiazole-5-carboxylate], the half-maximal inhibitory concentration (IC50) was < 100 nM. Take `CCn1nc(CC(C)(C)COC(=O)c2cn(C)cn2)c2c1C(=O)NCC1(CCOCC1)C2` [Example 300, [3-(1-ethyl-8-oxo-spiro[6,7-dihydro-4H-pyrazolo[3,4-c]azepine-5,4′-tetrahydropyran]-3-yl)-2,2-dimethyl-propyl] 1-methylimidazole-4-carboxylate]: the IC50 is < 100 nM.

Still in this experiment, the particulars now being: human PDE4D catalytic domain (UniProt Q08499 [S380-L740]); 50% inhibition of substrate cleavage; read-out: PDE4 IC50 range.
As for `CCn1nc(CCCOC(=O)c2cc(C)ns2)c2c1C(=O)NCC1(CCOCC1)C2` [Example 253, 3-(1-ethyl-8-oxo-spiro[6,7-dihydro-4H-pyrazolo[3,4-c]azepine-5,4′-tetrahydropyran]-3-yl)propyl 3-methylisothiazole-5-carboxylate], the IC50 was < 100 nM. Same read-out and setting: then `CCn1nc(CC(C)(C)COC(=O)c2cccc(C(=O)N3CCN(C)CC3)c2)c2c1C(=O)NCC1(CCOCC1)C2` [Example 233, [3-(1-ethyl-8-oxo-spiro[6,7-dihydro-4H-pyrazolo[3,4-c]azepine-5,4′-tetrahydro-pyran]-3-yl)-2,2-dimethyl-propyl] 3-(4-methyl-piperazine-1-carbonyl)-benzoate], with < 100 nM. Still for that read-out and setting: to `CCn1nc(CC(C)(C)COC(=O)c2ccc(C(=O)N3CCN(C(C)=O)CC3)cc2)c2c1C(=O)NCC1(CCOCC1)C2` [Example 225, [3-(1-ethyl-8-oxo-spiro[6,7-dihydro-4H-pyrazolo[3,4-c]azepine-5,4'-tetrahydropyran]-3-yl)-2,2-dimethyl-propyl] 4-(4-acetylpiperazine-1-carbonyl)benzoate] belongs < 100 nM. On the same count and under the same terms, then `CCn1nc(C[C@@H](C)COC(=O)c2ccccc2F)c2c1C(=O)NCC1(CCOCC1)C2` [Example 144, [(2R)-3-(1-ethyl-8-oxo-spiro[6,7-dihydro-4H-pyrazolo[3,4-c]azepine-5,4′-tetrahydropyran]-3-yl)-2-methyl-propyl] 2-fluorobenzoate], with < 100 nM; and `CCn1nc(CCCOC(=O)c2ccc(C(C)=O)cc2)c2c1C(=O)NCC1(CCOCC1)C2` [Example 27, 3-(1-ethyl-8-oxo-spiro[6,7-dihydro-4H-pyrazolo[3,4-c]azepine-5,4′-tetrahydropyran]-3-yl)propyl 4-acetylbenzoate], with < 100 nM. As to `CCn1nc(CCCOC(=O)c2cccc(C(=O)N3CCCCC3)c2)c2c1C(=O)NCC1(CCOCC1)C2` [Example 117, 3-(1-ethyl-8-oxo-spiro[6,7-dihydro-4H-pyrazolo[3,4-c]azepine-5,4′-tetrahydropyran]-3-yl)propyl 3-(piperidine-1-carbonyl)benzoate], the IC50 was < 100 nM. Still for that read-out and setting: to `CCn1nc(CCCOC(=O)c2cc(Cl)ccc2F)c2c1C(=O)NCC1(CCOCC1)C2` [Example 51, 3-(1-ethyl-8-oxo-spiro[6,7-dihydro-4H-pyrazolo[3,4-c]azepine-5,4′-tetrahydropyran]-3-yl)propyl 5-chloro-2-fluoro-benzoate] belongs < 100 nM; to `CCn1nc(C[C@@H](C)COC(=O)c2cccc(S(=O)(=O)N3CCN(C(C)=O)CC3)c2)c2c1C(=O)NCC1(CCOCC1)C2` [Example 166, [(2R)-3-(1-ethyl-8-oxo-spiro[6,7-dihydro-4H-pyrazolo[3,4-c]azepine-5,4′-tetrahydropyran]-3-yl)-2-methyl-propyl] 3-(4-acetylpiperazin-1-yl)sulfonylbenzoate], < 100 nM.

Consider `CCn1nc(CCCOC(=O)C2CCSCC2)c2c1C(=O)NCC1(CCOCC1)C2` [Example 257, 3-(1-ethyl-8-oxo-spiro[6,7-dihydro-4H-pyrazolo[3,4-c]azepine-5,4′-tetrahydro-pyran]-3-yl)propyl tetrahydro-thiopyran-4-carboxylate], for which the IC50 is < 100 nM.

With `CCn1nc(CCCOC(=O)c2ccc(C#N)c(F)c2)c2c1C(=O)NCC1(CCOCC1)C2` [Example 32, 3-(1-ethyl-8-oxo-spiro[6,7-dihydro-4H-pyrazolo[3,4-c]azepine-5,4′-tetrahydropyran]-3-yl)propyl 4-cyano-3-fluoro-benzoate], the IC50 was < 100 nM. On the same count and under the same terms, then `CCn1nc(CCCOC(=O)c2ccc(C(=O)N3CCOCC3)cc2)c2c1C(=O)NCC1(CCOCC1)C2` [Example 109, 3-(1-ethyl-8-oxo-spiro[6,7-dihydro-4H-pyrazolo[3,4-c]azepine-5,4′-tetrahydropyran]-3-yl)propyl 4-(morpholine-4-carbonyl)benzoate], with < 100 nM; and `CCn1nc(CCCOC(=O)c2ccc(Cl)c(C(F)(F)F)c2)c2c1C(=O)NCC1(CCOCC1)C2` [Example 89, 3-(1-ethyl-8-oxo-spiro[6,7-dihydro-4H-pyrazolo[3,4-c]azepine-5,4′-tetrahydro-pyran]-3-yl)propyl 4-chloro-3-(trifluoromethyl)benzoate], with < 100 nM. On the same count and under the same terms, to `CCn1nc(CC(C)(C)COC(=O)CCOC)c2c1C(=O)NCC1(CCOCC1)C2` [Example 186, [3-(1-ethyl-8-oxo-spiro[6,7-dihydro-4H-pyrazolo[3,4-c]azepine-5,4′-tetrahydropyran]-3-yl)-2,2-dimethyl-propyl] 3-methoxypropanoate] belongs < 100 nM; to `CCn1nc(CCCOC(=O)c2cccc(C(F)(F)F)c2C)c2c1C(=O)NCC1(CCOCC1)C2` [Example 68, 3-(1-ethyl-8-oxo-spiro[6,7-dihydro-4H-pyrazolo[3,4-c]azepine-5,4′-tetrahydro-pyran]-3-yl)propyl 2-methyl-3-(trifluoromethyl)benzoate], < 100 nM; to `CCn1nc(CCCOC(=O)c2ccns2)c2c1C(=O)NCC1(CCOCC1)C2` [Example 242, 3-(1-ethyl-8-oxo-spiro[6,7-dihydro-4H-pyrazolo[3,4-c]azepine-5,4′-tetrahydropyran]-3-yl)propyl isothiazole-5-carboxylate], < 100 nM. The same measure, in the same setting: then `CCn1nc(CCCOC(=O)c2cccc(S(=O)(=O)NC)c2)c2c1C(=O)NCC1(CCOCC1)C2` [Example 78, 3-(1-ethyl-8-oxo-spiro[6,7-dihydro-4H-pyrazolo[3,4-c]azepine-5,4′-tetrahydro-pyran]-3-yl)propyl 3-(methylsulfamoyl)benzoate], with < 100 nM; and `CCn1nc(CCCOC(=O)c2ccc(C(F)(F)F)c(OC)c2)c2c1C(=O)NCC1(CCOCC1)C2` [Example 83, 3-(1-ethyl-8-oxo-spiro[6,7-dihydro-4H-pyrazolo[3,4-c]azepine-5,4′-tetrahydro-pyran]-3-yl)propyl 3-methoxy-4-(trifluoromethyl)benzoate], with < 100 nM. For the molecule `CCn1nc(CCCCOC(=O)c2ccc(C(C)=O)cc2)c2c1C(=O)NCC1(CCOCC1)C2` [Example 126, 4-(1-ethyl-8-oxo-spiro[6,7-dihydro-4H-pyrazolo[3,4-c]azepine-5,4′-tetrahydropyran]-3-yl)butyl 4-acetylbenzoate], the IC50 was < 100 nM.
